Experimental data taken from patent US20260130395A1, “Water Dispersible Botanical Compositions” (Aquila Black Limited, priority 2021, published 2026).

Experiment: Stability of cannabinoid compounds and Vitamin E components in Beverage 1 (AB White) by LCMSMS
Format: physicochemical
Procedure: The stability of the plant-derived cannabinoid compounds and Vitamin E components of the beverage stored 8° C. and at room temperature (21-25° C.) were monitored, over a period of 570 days via Liquid Chromatography-tandem Mass Spectrometry [LCMSMS, Agilent 6590, C18, 3×50 mm, 2.7 m (Agilent InfinityLab Poroshell 120 EC-C18), Electrospray Ionization detector]. The LCMSMS was calibrated for 0-1000 ng/ml cannabinoids with the same resin material used in the preparation of the concentrates. At each time period, 100 ml of beverage was diluted with 10 ml of methanol and injected into the LCMSMS for analysis.

Cc1c(C)c2c(c(C)c1O)CC[C@@](C)(CCC[C@H](C)CCC[C@H](C)CCCC(C)C)O2 [α-Tocopherol]
Stability of Vitamin Es in AB White (stored at 8° C., 0 days): 26.1 µg/mL | Stability of Vitamin Es in AB White (stored at 8° C., 1 days): 24.90 µg/mL | Stability of Vitamin Es in AB White (stored at 8° C., 2 days): 23.46 µg/mL | Stability of Vitamin Es in AB White (stored at 8° C., 3 days): 23.21 µg/mL | Stability of Vitamin Es in AB White (stored at 8° C., 5 days): 23.39 µg/mL | Stability of Vitamin Es in AB White (stored at 8° C., 8 days): 24.65 µg/mL | Stability of Vitamin Es in AB White (stored at 8° C., 9 days): 24.42 µg/mL | Stability of Vitamin Es in AB White (stored at 8° C., 10 days): 24.57 µg/mL | Stability of Vitamin Es in AB White (stored at 8° C., 11 days): 25.45 µg/mL | Stability of Vitamin Es in AB White (stored at 8° C., 12 days): 23.97 µg/mL | Stability of Vitamin Es in AB White (stored at 8° C., 15 days): 25.48 µg/mL | Stability of Vitamin Es in AB White (stored at 8° C., 16 days): 25.02 µg/mL | Stability of Vitamin Es in AB White (stored at 8° C., 17 days): 24.17 µg/mL | Stability of Vitamin Es in AB White (stored at 8° C., 18 days): 23.28 µg/mL | Stability of Vitamin Es in AB White (stored at 8° C., 19 days): 24.12 µg/mL | Stability of Vitamin Es in AB White (stored at 8° C., 22 days): 23.51 µg/mL | Stability of Vitamin Es in AB White (stored at 8° C., 23 days): 24.27 µg/mL | Stability of Vitamin Es in AB White (stored at 8° C., 24 days): 24.72 µg/mL | Stability of Vitamin Es in AB White (stored at 8° C., 25 days): 25.28 µg/mL | Stability of Vitamin Es in AB White (stored at 8° C., 26 days): 25.25 µg/mL | Stability of Vitamin Es in AB White (stored at 8° C., 29 days): 24.87 µg/mL | Stability of Vitamin Es in AB White (stored at 8° C., 30 days): 23.64 µg/mL | Stability of Vitamin Es in AB White (stored at 8° C., 60 days): 22.96 µg/mL | Stability of Vitamin Es in AB White (stored at 8° C., 90 days): 24.27 µg/mL | Stability of Vitamin Es in AB White (stored at 8° C., 120 days): 23.01 µg/mL | Stability of Vitamin Es in AB White (stored at 8° C., 150 days): 24.32 µg/mL | Stability of Vitamin Es in AB White (stored at 8° C., 180 days): 24.54 µg/mL | Stability of Vitamin Es in AB White (stored at 8° C., 210 days): 23.71 µg/mL | Stability of Vitamin Es in AB White (stored at 8° C., 240 days): 22.68 µg/mL | Stability of Vitamin Es in AB White (stored at 8° C., 270 days): 22.68 µg/mL | Stability of Vitamin Es in AB White (stored at 8° C., 300 days): 22.76 µg/mL | Stability of Vitamin Es in AB White (stored at 8° C., 330 days): 23.21 µg/mL | Stability of Vitamin Es in AB White (stored at 8° C., 360 days): 22.25 µg/mL | Stability of Vitamin Es in AB White (stored at 8° C., 390 days): 22.45 µg/mL | Stability of Vitamin Es in AB White (stored at 8° C., 420 days): 22.35 µg/mL | Stability of Vitamin Es in AB White (stored at 8° C., 450 days): 22.88 µg/mL | Stability of Vitamin Es in AB White (stored at 8° C., 480 days): 22.05 µg/mL | Stability of Vitamin Es in AB White (stored at 8° C., 510 days): 21.32 µg/mL | Stability of Vitamin Es in AB White (stored at 8° C., 540 days): 21.72 µg/mL | Stability of Vitamin Es in AB White (stored at 8° C., 570 days): 22.00 µg/mL | Stability of Vitamin Es in AB White (stored at 21-25° C., 0 days): 26.1 µg/mL | Stability of Vitamin Es in AB White (stored at 21-25° C., 1 days): 25.1 µg/mL | Stability of Vitamin Es in AB White (stored at 21-25° C., 2 days): 25.5 µg/mL | Stability of Vitamin Es in AB White (stored at 21-25° C., 3 days): 25.8 µg/mL | Stability of Vitamin Es in AB White (stored at 21-25° C., 5 days): 25.4 µg/mL | Stability of Vitamin Es in AB White (stored at 21-25° C., 8 days): 23.9 µg/mL | Stability of Vitamin Es in AB White (stored at 21-25° C., 9 days): 25.3 µg/mL | Stability of Vitamin Es in AB White (stored at 21-25° C., 10 days): 26.3 µg/mL | Stability of Vitamin Es in AB White (stored at 21-25° C., 11 days): 26.0 µg/mL | Stability of Vitamin Es in AB White (stored at 21-25° C., 12 days): 24.6 µg/mL | Stability of Vitamin Es in AB White (stored at 21-25° C., 15 days): 23.9 µg/mL | Stability of Vitamin Es in AB White (stored at 21-25° C., 16 days): 24.2 µg/mL | Stability of Vitamin Es in AB White (stored at 21-25° C., 17 days): 26.2 µg/mL | Stability of Vitamin Es in AB White (stored at 21-25° C., 18 days): 25.3 µg/mL | Stability of Vitamin Es in AB White (stored at 21-25° C., 19 days): 23.8 µg/mL | Stability of Vitamin Es in AB White (stored at 21-25° C., 22 days): 25.7 µg/mL | Stability of Vitamin Es in AB White (stored at 21-25° C., 23 days): 23.8 µg/mL | Stability of Vitamin Es in AB White (stored at 21-25° C., 24 days): 25.8 µg/mL | Stability of Vitamin Es in AB White (stored at 21-25° C., 25 days): 25.0 µg/mL | Stability of Vitamin Es in AB White (stored at 21-25° C., 26 days): 24.8 µg/mL | Stability of Vitamin Es in AB White (stored at 21-25° C., 29 days): 26.1 µg/mL | Stability of Vitamin Es in AB White (stored at 21-25° C., 30 days): 23.9 µg/mL | Stability of Vitamin Es in AB White (stored at 21-25° C., 60 days): 25.0 µg/mL | Stability of Vitamin Es in AB White (stored at 21-25° C., 90 days): 23.7 µg/mL | Stability of Vitamin Es in AB White (stored at 21-25° C., 120 days): 24.7 µg/mL | Stability of Vitamin Es in AB White (stored at 21-25° C., 150 days): 24.4 µg/mL | Stability of Vitamin Es in AB White (stored at 21-25° C., 180 days): 23.6 µg/mL | Stability of Vitamin Es in AB White (stored at 21-25° C., 210 days): 23.1 µg/mL | Stability of Vitamin Es in AB White (stored at 21-25° C., 240 days): 24.2 µg/mL | Stability of Vitamin Es in AB White (stored at 21-25° C., 270 days): 23.1 µg/mL | Stability of Vitamin Es in AB White (stored at 21-25° C., 300 days): 24.2 µg/mL | Stability of Vitamin Es in AB White (stored at 21-25° C., 330 days): 24.4 µg/mL | Stability of Vitamin Es in AB White (stored at 21-25° C., 360 days): 23.6 µg/mL | Stability of Vitamin Es in AB White (stored at 21-25° C., 390 days): 23.1 µg/mL | Stability of Vitamin Es in AB White (stored at 21-25° C., 420 days): 22.8 µg/mL | Stability of Vitamin Es in AB White (stored at 21-25° C., 450 days): 23.4 µg/mL | Stability of Vitamin Es in AB White (stored at 21-25° C., 480 days): 21.6 µg/mL | Stability of Vitamin Es in AB White (stored at 21-25° C., 510 days): 21.9 µg/mL | Stability of Vitamin Es in AB White (stored at 21-25° C., 540 days): 22.0 µg/mL | Stability of Vitamin Es in AB White (stored at 21-25° C., 570 days): 22.2 µg/mL
